From patent publication US9447108B2 (SZEGEDI TUDOMÁNYEGYETEM, priority 2013, dated 2016) come the findings set out here.

In one experiment the test system is rats. The experiment in a line: Behavioral nociceptive testing, paw-withdrawal test (PWD), heat pain threshold. Format: in vivo, rat. Conditions: for antinociception, potency and dose dependence: s.c., 0.3-10 mg/kg. Here is the method: The paw-withdrawal test (PWD) was used to measure the heat pain threshold after the treatments. A detailed description of this model was published by Hargreaves et al. (Hargreaves, K.; Dubner, R.; Brown, F.; Flores, C.; Joris, J. Pain; 32, 77 1988). Briefly, rats were placed on a glass surface in a plastic chamber and were allowed to acclimatize to their environment for 15-30 min before testing. The baseline hind paw-withdrawal latencies (baseline values at 0 min determined two times) were then obtained. A heat stimulus was directed onto the plantar surface of each hind paw and the intensity of the thermal stimulus was adjusted to derive an average baseline latency of approximately 10 s (cut-off time 20 s). Then the animals were treated subcutaneously with different doses of ligands (0.3-10 mg/kg). The nociceptive threshold was determined at 15-min intervals for 120 min.
Data are presented as means±SEM. The mean of the two sides and the mean of two time points (15-30; 45-60; 75-90 and […]) were evaluated. The results were analyzed using a two-way ANOVA (ANalysis Of VAriances) (factors: treatment and time with repeated measurements). Subsequent analysis was performed using Fisher-LSD test. A p-value less than 0.05 was considered significant. Data were analyzed using […] 7.1. software (Statsoft Inc., Tulsa, Okla.).

A further experiment addresses T1, δ-opioid receptors (Rattus norvegicus, UniProt P33533).
T1 construct: A crude membrane fraction was prepared from Wistar rat brains and spinal cords; from tissue; host or cells: Wistar rat brain (without cerebellum), crude membrane fraction
The experiment can be described thus: Receptor binding assay, [3H]Ile5,6-deltorphin-2 displacement in rat brain membranes.

The next experiment deals with T2, μ-opioid receptors (Rattus norvegicus, UniProt P33535).
T2 construct: A crude membrane fraction was prepared from Wistar rat brains and spinal cords; from tissue; host or cells: Wistar rat brain (without cerebellum), crude membrane fraction
T2 sequence (P33535 whole entry): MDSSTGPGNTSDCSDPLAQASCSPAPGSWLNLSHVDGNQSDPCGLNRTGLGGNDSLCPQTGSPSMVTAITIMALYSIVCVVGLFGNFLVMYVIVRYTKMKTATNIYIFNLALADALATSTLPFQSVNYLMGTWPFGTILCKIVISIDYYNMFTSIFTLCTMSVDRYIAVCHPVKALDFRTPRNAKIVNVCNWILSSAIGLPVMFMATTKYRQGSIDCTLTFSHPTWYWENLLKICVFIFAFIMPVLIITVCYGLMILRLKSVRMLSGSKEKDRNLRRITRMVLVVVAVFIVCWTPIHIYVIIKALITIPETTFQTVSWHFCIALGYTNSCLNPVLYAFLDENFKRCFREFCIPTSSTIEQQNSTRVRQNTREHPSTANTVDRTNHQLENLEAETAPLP
The experiment in a line: Receptor binding assay, [3H]DAMGO displacement in rat brain membranes.

Where [1] appears, read: 10 mg/kg s.c., 0 min (baseline).

T1 sequence (P33533 whole entry): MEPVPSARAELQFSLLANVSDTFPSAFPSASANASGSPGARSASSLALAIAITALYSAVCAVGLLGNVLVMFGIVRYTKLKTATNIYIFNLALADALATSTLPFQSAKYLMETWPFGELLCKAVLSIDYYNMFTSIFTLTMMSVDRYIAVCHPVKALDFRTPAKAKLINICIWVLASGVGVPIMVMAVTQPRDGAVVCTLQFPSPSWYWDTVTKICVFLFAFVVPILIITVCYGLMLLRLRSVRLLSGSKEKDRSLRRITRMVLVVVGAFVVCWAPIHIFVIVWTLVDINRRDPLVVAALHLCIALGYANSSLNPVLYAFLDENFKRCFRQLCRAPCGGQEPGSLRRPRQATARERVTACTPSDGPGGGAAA

As to `COc1ccc2c3c1O[C@H]1[C@@H](O)CC[C@H]4[C@@H](C2)N(C)CC[C@@]341` [Dihydrocodeine], the “Time course of the antinociceptive effects (paw-withdrawal latency)” value (“Time course” for short) in the experiment with rats (3 mg/kg s.c., 0 min (baseline)) was 10.1 s; in the experiment with rats (3 mg/kg s.c., 30 min), 11.1 s; with rats (3 mg/kg s.c., 60 min) it was 10.7 s; in the experiment on rats (3 mg/kg s.c., 90 min), 10.5 s; with rats (3 mg/kg s.c., 120 min) it was 10.3 s; in the experiment with rats (setting [1]), 9.9 s. In addition, the “Time course” value in the experiment on rats (10 mg/kg s.c., 30 min) was found to be 13.4 s; in the experiment on rats (10 mg/kg s.c., 60 min) it was 13.6 s; in the experiment with rats (10 mg/kg s.c., 90 min), 10.9 s; with rats (10 mg/kg s.c., 120 min), 9.8 s. For the same compound, the Ki on δ-opioid receptors is greater than 10000 nM; at μ-opioid receptors it was 122 ± 15 nM.

As for `CCOc1ccc2c3c1O[C@H]1[C@@H](O)CC[C@H]4[C@@H](C2)N(C)CC[C@@]341` [Dihydroethylmorphine], the “Time course” value was found to be 10.1 s in the experiment with rats (3 mg/kg s.c., 0 min (baseline)); 11.3 s in the experiment on rats (3 mg/kg s.c., 30 min); 10.9 s in the experiment on rats (3 mg/kg s.c., 60 min); 10.2 s in the experiment on rats (3 mg/kg s.c., 90 min); 9.9 s with rats (3 mg/kg s.c., 120 min); 10.2 s with rats (setting [1]). Further, the “Time course” value in the experiment with rats (10 mg/kg s.c., 30 min) is 11.5 s; in the experiment on rats (10 mg/kg s.c., 60 min), 12.3 s; in the experiment on rats (10 mg/kg s.c., 90 min), 12.0 s; in the experiment with rats (10 mg/kg s.c., 120 min), 10.4 s.

As for `CC(=O)Oc1ccc2c3c1O[C@H]1[C@@H](OC(C)=O)CC[C@H]4[C@@H](C2)N(C)CC[C@@]341` [Dihydroheroine], the “Time course” value in the experiment with rats (3 mg/kg s.c., 0 min (baseline)) was determined as 10.1 s; with rats (3 mg/kg s.c., 30 min) it was 17.3 s; in the experiment on rats (3 mg/kg s.c., 60 min), 15.6 s; in the experiment with rats (3 mg/kg s.c., 90 min), 12.9 s; with rats (3 mg/kg s.c., 120 min) it was 10.7 s.

For the compound `CN1CC[C@]23c4c5ccc(O)c4O[C@H]2[C@@H](O)CC[C@H]3[C@H]1C5` [Dihydromorphine], the “Time course” value with rats (3 mg/kg s.c., 0 min (baseline)) came out at 10.2 s; in the experiment with rats (3 mg/kg s.c., 30 min), 13.1 s; in the experiment with rats (3 mg/kg s.c., 60 min), 13.9 s; with rats (3 mg/kg s.c., 90 min), 14.1 s; in the experiment on rats (3 mg/kg s.c., 120 min), 13.3 s; in the experiment with rats (setting [1]) it was 10.1 s. The “Time course” value stood at 19.4 s in the experiment with rats (10 mg/kg s.c., 30 min); 20.6 s in the experiment on rats (10 mg/kg s.c., 60 min); 15.3 s with rats (10 mg/kg s.c., 90 min); 14.1 s with rats (10 mg/kg s.c., 120 min).

Consider `[2H][C@@H]1[C@H]([2H])[C@H]2[C@H]3Cc4ccc(O)c5c4[C@@]2(CCN3C)[C@@H](O5)[C@H]1O` [Example 1, (5α,6α,7β,8β)-3,6-dihydroxy-4,5-epoxy-17-methyl-(7,8-^2H2)-morphinan], for which the “Time course” value in the experiment on rats (3 mg/kg s.c., 0 min (baseline)) worked out at 10.1 s; in the experiment with rats (3 mg/kg s.c., 30 min), 14.1 s; in the experiment on rats (3 mg/kg s.c., 60 min), 14.9 s; in the experiment with rats (3 mg/kg s.c., 90 min), 14.9 s; in the experiment on rats (3 mg/kg s.c., 120 min) it was 14.1 s; with rats (setting [1]), 9.8 s. The “Time course” value in the experiment on rats (10 mg/kg s.c., 30 min) was 21.3 s; in the experiment on rats (10 mg/kg s.c., 60 min), 22.1 s; with rats (10 mg/kg s.c., 90 min) it was 16.8 s; in the experiment on rats (10 mg/kg s.c., 120 min) it was 16.1 s. The “antinociceptive effect at 3 mg/kg, efficacy compared to morphine” value in the experiment with rats (3 mg/kg s.c., in words) is given as “more effective than morphine”. Further, in the experiment with rats (3 mg/kg s.c., in words), the “duration of antinociceptive effect compared to other drugs” value is reported as “more prolonged effects compared to other drugs”. Also, the “antinociception, potency and dose dependence” value with rats (in words) is on record as “more potent”.

For the compound `[2H][C@@H]1[C@H]([2H])[C@H]2[C@H]3Cc4ccc(OC)c5c4[C@@]2(CCN3C)[C@@H](O5)[C@H]1O` [Example 2, (5α,6α,7β,8β)-4,5-epoxy-6-hydroxy-3-methoxy-17-methyl-(7,8-^2H2)-morphinan], the “Time course” value in the experiment on rats (3 mg/kg s.c., 0 min (baseline)) was 9.9 s; in the experiment on rats (3 mg/kg s.c., 30 min), 12.1 s; in the experiment on rats (3 mg/kg s.c., 60 min), 11.9 s; in the experiment with rats (3 mg/kg s.c., 90 min), 11.7 s; in the experiment on rats (3 mg/kg s.c., 120 min), 11.8 s; with rats (setting [1]), 10.1 s. Also, the “Time course” value in the experiment with rats (10 mg/kg s.c., 30 min) came out at 14.2 s; in the experiment on rats (10 mg/kg s.c., 60 min), 14.8 s; in the experiment with rats (10 mg/kg s.c., 90 min), 14.9 s; in the experiment on rats (10 mg/kg s.c., 120 min) it was 14.1 s. Besides, the “antinociceptive effect compared to non-deuterated analogues” value with rats (10 mg/kg s.c., in words) is “increased and prolonged the effect”. Also, the “antinociception, potency and dose dependence” value with rats (in words) is “lower potency”. For the same compound, the Ki was greater than 10000 nM on δ-opioid receptors and 34.1 ± 1.08 nM at μ-opioid receptors. Moreover, the “affinity to μ-opioid receptors compared to the corresponding hydrogenated derivative” value at μ-opioid receptors (in words) is reported as “higher affinity to μ-opioid receptors than the corresponding hydrogenated derivatives”.

On to `[2H][C@@H]1[C@H]([2H])[C@H]2[C@H]3Cc4ccc(OC(C)=O)c5c4[C@@]2(CCN3C)[C@@H](O5)[C@H]1OC(C)=O` [Example 4, (5α,6α,7β,8β)-3,6-diacetoxy-4,5-epoxy-17-methyl-(7,8-^2H2)-morphinan], for which the “Time course” value in the experiment on rats (3 mg/kg s.c., 0 min (baseline)) is 9.7 s; with rats (3 mg/kg s.c., 30 min) it was 19.7 s; with rats (3 mg/kg s.c., 60 min), 17.9 s; in the experiment with rats (3 mg/kg s.c., 90 min), 14.3 s; in the experiment with rats (3 mg/kg s.c., 120 min), 11.4 s. Moreover, in the experiment with rats (3 mg/kg s.c., in words), the “duration of antinociceptive effect compared to other drugs” value is given as “more prolonged effects compared to other drugs”. Besides, the “antinociception, potency and dose dependence” value in the experiment with rats (in words) is “more potent”. For the same compound, the Ki was found to be 211 ± 24 nM on δ-opioid receptors and 2.89 ± 0.7 nM on μ-opioid receptors. The “affinity to μ-opioid receptors compared to morphine” value at μ-opioid receptors (in words) is reported as “higher affinity to μ-opioid receptors than the morphine”. In addition, at μ-opioid receptors (selectivity ratio δ/μ), the “Ki^δ/Ki^μ” value is 73.

For the compound `[2H][C@H]1C(=O)[C@@H]2Oc3c(OC)ccc4c3[C@@]23CCN(C)[C@H](C4)[C@]3(O)[C@H]1[2H]` [Example 5, (5α,7β,8β,14β)-4,5-epoxy-14-hydroxy-3-methoxy-17-methyl-(7,8-^2H2)-morphinan-6-one], the “Time course” value with rats (3 mg/kg s.c., 0 min (baseline)) stood at 9.9 s; with rats (3 mg/kg s.c., 30 min), 13.3 s; in the experiment on rats (3 mg/kg s.c., 60 min), 13.7 s; with rats (3 mg/kg s.c., 90 min), 13.6 s; in the experiment on rats (3 mg/kg s.c., 120 min), 12.1 s.

Consider `CN1CC[C@]23c4c5ccc(O)c4O[C@H]2[C@@H](O)C=C[C@H]3[C@H]1C5` [Morphine], for which the “Time course” value in the experiment on rats (3 mg/kg s.c., 0 min (baseline)) came to 10.1 s; with rats (3 mg/kg s.c., 30 min), 14.4 s; in the experiment on rats (3 mg/kg s.c., 60 min) it was 13.9 s; with rats (3 mg/kg s.c., 90 min), 13.2 s; in the experiment with rats (3 mg/kg s.c., 120 min) it was 12.8 s; in the experiment on rats (setting [1]), 9.9 s. The “Time course” value came out at 18.2 s in the experiment on rats (10 mg/kg s.c., 30 min); 18.8 s with rats (10 mg/kg s.c., 60 min); 14.4 s with rats (10 mg/kg s.c., 90 min); 10.5 s with rats (10 mg/kg s.c., 120 min).

In the case of `COc1ccc2c3c1O[C@H]1C(=O)CC[C@@]4(O)[C@@H](C2)N(C)CC[C@]314` [Oxycodone], the “Time course” value in the experiment on rats (3 mg/kg s.c., 0 min (baseline)) worked out at 9.8 s; with rats (3 mg/kg s.c., 30 min), 12.2 s; in the experiment with rats (3 mg/kg s.c., 60 min), 12.6 s; in the experiment on rats (3 mg/kg s.c., 90 min), 11.9 s; in the experiment with rats (3 mg/kg s.c., 120 min) it was 10.6 s.

As usually defined, the Ki is the equilibrium dissociation constant of an inhibitor or competing ligand from its target. A high value points to lower affinity.
